Values quoted from earlier work in patent US20110275649A1, “Combination therapy for the prevention of statin induced diabetes” (Palmetto Pharmaceuticals LLC, priority 2010, published 2011).
Values belong to the compound of their own block, whether it stands above or below them.

Experiments:
[1] = compared with pravastatin
[2] = tested on: carnitine palmitoyltransferase-1: CPT-1; settings: in vitro studies; e.g. by inhibition of CPT-1
CYP3A4 = CYP3A4 (Homo sapiens, UniProt P08684)
late sodium channel = late sodium channel (Homo sapiens, UniProt Q14524)
[3] = JUPITER trial
[4] = tested on: 3-keto-CoA-thiolase, or 3-KAT

CYP3A4, sequence (P08684 whole entry): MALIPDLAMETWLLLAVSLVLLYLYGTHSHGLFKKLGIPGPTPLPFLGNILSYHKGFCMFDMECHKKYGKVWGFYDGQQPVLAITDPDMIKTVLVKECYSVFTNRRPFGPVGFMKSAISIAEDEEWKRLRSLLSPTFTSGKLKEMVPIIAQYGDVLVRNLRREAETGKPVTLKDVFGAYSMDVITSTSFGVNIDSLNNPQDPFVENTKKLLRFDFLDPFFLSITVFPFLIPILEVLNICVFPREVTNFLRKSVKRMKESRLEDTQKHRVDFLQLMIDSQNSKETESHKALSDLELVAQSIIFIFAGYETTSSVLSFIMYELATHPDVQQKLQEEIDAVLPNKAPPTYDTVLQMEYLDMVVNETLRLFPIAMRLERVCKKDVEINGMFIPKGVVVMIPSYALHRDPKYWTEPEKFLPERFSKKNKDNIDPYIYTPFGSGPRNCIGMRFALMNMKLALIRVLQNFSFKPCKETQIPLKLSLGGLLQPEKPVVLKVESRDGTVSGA
late sodium channel, sequence (Q14524 whole entry): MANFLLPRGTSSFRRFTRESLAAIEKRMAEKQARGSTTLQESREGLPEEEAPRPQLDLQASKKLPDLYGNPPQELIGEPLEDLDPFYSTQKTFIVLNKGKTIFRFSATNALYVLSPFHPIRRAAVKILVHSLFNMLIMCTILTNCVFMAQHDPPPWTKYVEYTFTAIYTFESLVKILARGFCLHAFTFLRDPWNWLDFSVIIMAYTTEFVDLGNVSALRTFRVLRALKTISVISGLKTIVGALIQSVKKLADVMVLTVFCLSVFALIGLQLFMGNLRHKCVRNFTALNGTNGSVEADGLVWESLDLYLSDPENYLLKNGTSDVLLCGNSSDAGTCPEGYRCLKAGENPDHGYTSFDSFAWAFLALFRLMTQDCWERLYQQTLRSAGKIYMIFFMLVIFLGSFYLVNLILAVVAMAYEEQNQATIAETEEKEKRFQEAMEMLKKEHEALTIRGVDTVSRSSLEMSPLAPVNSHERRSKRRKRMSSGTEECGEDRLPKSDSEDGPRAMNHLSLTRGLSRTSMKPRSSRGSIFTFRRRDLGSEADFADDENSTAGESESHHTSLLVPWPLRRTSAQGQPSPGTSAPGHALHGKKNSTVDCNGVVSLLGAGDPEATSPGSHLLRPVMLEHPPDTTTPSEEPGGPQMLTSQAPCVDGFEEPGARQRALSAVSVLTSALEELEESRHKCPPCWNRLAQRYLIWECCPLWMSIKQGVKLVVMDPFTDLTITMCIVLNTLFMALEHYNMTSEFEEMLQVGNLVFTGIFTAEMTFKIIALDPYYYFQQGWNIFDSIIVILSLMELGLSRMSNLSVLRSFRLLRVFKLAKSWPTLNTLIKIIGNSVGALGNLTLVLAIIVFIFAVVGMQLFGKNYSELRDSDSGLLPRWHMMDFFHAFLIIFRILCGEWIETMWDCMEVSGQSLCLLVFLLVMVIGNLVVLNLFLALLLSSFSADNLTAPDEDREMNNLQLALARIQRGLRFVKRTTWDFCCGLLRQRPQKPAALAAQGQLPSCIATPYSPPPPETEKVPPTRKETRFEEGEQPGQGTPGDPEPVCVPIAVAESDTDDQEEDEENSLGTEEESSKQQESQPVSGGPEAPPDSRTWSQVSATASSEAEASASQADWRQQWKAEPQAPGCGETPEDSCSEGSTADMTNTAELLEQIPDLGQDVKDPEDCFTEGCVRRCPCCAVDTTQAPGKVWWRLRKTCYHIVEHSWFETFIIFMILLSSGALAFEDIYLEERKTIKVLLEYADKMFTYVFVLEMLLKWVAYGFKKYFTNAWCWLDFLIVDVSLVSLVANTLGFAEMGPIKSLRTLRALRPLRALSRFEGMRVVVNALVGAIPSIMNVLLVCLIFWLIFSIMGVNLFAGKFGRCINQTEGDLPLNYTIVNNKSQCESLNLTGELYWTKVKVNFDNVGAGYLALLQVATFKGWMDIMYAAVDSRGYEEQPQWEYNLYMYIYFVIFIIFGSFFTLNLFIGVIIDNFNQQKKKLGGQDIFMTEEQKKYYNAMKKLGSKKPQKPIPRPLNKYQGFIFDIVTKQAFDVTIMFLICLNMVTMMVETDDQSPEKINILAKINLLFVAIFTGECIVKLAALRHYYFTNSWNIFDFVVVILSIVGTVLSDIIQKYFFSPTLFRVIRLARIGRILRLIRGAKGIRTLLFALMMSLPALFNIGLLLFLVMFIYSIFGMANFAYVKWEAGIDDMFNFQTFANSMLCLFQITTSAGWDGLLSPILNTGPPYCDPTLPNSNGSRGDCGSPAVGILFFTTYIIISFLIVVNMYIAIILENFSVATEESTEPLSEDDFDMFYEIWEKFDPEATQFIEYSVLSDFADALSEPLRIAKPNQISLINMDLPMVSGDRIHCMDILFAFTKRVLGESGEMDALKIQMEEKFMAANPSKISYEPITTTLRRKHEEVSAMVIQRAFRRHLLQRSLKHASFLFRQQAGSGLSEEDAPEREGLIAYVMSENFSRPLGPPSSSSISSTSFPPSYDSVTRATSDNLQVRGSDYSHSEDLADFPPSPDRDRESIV

Structure (SMILES): CC(C)c1c(C(=O)Nc2ccccc2)c(-c2ccccc2)c(-c2ccc(F)cc2)n1CC[C@@H](O)C[C@@H](O)CC(=O)O [atorvastatin]
likelihood to induce diabetes [1]: much more likely to induce diabetes than pravastatin

Structure (SMILES): C1CCC(C(CC2CCCCN2)C2CCCCC2)CC1 (stereo not drawn) [perhexiline]
myocardial fatty acid catabolism [2]: causes inhibition of myocardial fatty acid catabolism

Structure (SMILES): O=C(O)C[C@H](O)C[C@H](O)/C=C/c1c(C2CC2)nc2ccccc2c1-c1ccc(F)cc1 [pitavastatin]
metabolism by CYP3A4 (CYP3A4): does not undergo metabolism by the 3A4 system

lipid / water solubility: water soluble
Structure (SMILES): CC[C@H](C)C(=O)O[C@H]1C[C@H](O)C=C2C=C[C@H](C)[C@H](CC[C@@H](O)C[C@@H](O)CC(=O)O)[C@H]21 [pravastatin]

late sodium channel inhibition (late sodium channel): inhibits the late sodium channel
Structure (SMILES): COc1ccccc1OCC(O)CN1CCN(CC(=O)Nc2c(C)cccc2C)CC1 (stereo not drawn) [ranolazine]
arrhythmogenic events from QT prolongation (QT interval; Merlin-TIMI 36): did not cause excess arrythmogenic events | QT interval (QT interval; in vivo): causes QT interval prolongation

diabetes in the group receiving the statin [3]: increase in diabetes
Structure (SMILES): CC(C)c1nc(N(C)S(C)(=O)=O)nc(-c2ccc(F)cc2)c1/C=C/[C@@H](O)C[C@@H](O)CC(=O)O [rosuvastatin]

Structure (SMILES): COc1ccc(CN2CCNCC2)c(OC)c1OC [trimetazidine]
inhibition of 3-KAT [4]: inhibition of the enzyme 3-keto-CoA-thiolase
